Results on five molecules are retold here after patent US4039535A, “7-[α-(GUANYL-1-UREIDO)PHENYLACETAMIDO]-3-SUBSTITUTED CEPHALOSPORIN ANTIBIOTICS” (Eli Lilly and Company, priority 1976, dated 1977).

SMILES strings stand for the structures. ≈ marks a conversion by molar mass, not a printed value. Like-named read-outs stand apart in the source and are kept apart here.

Assay type in all cases: cell-based
One assay concerns Aerobacter aerogenes. Nature of the assay: MIC by Gradient Plate Method, in vitro antibiotic activity vs gram-negative microorganisms (Table I). The note with it: Klebsiella aerogenes, read-out: Minimum Inhibitory Conc. The procedure:
(§1) In the tables the minimum inhibitory concentrations (MIC) of the listed compound verses the indicated gram-positive and gram-negative microorganisms is presented.
(§2) The MIC values were determined by the Gradient Plate Method which is essentially the method described by Bryson and Szybalski, Science, 116, 45-46 (1952).

Another assay deals with Escherichia coli. Described as above. Particulars: read-out: Minimum Inhibitory Conc. The method, then: as §1, §2
The next assay has as its system Klebsiella pneumoniae. The assay is described as above. The note with it: read-out: Minimum Inhibitory Conc. The procedure:
as §1, §2

In the next assay the test system is Pseudomonas aeruginosa. Described as above. The note with it: read-out: Minimum Inhibitory Conc. The procedure:
as §1, §2

The subject of a further assay is Salmonella heidelberg. The description is as above. Particulars: Salmonella enterica, read-out: Minimum Inhibitory Conc. The method, then: as §1, §2
For another assay, the system named is Serratia marcescens. Described as above. The note with it: read-out: Minimum Inhibitory Conc. The procedure: as §1, §2
The next assay has as its system Shigella sp. The description is as above. The note with it: read-out: Minimum Inhibitory Conc. The procedure: as §1, §2
Assay [1] has as its system penicillin resistant staphylococcus V32. As to the kind of experiment: MIC by Gradient Plate Method vs penicillin resistant staphylococcus clinical isolates (Table II). Particulars: read-out: Minimum Inhibitory Concentration. The procedure: as §1, §2
For assay [2], the system named is penicillin resistant staphylococcus V41. The assay is described as above. Particulars: read-out: Minimum Inhibitory Concentration. The method, then: as §1, §2
The test system of assay [3] is penicillin resistant staphylococcus V84. The description is as above. Particulars: read-out: Minimum Inhibitory Concentration. The method, then: as §1, §2
In assay [4] the test system is penicillin resistant staphylococcus X1.1. The description is as above. Particulars: read-out: Minimum Inhibitory Concentration. The procedure:
as §1, §2

Assay [5] deals with gram-negative microorganisms. Nature of the assay: Antibiotic activity against gram-negative microorganisms, summary of Table I. The note with it: in words; MIC values in Table I; vs compound E. The method, then: as §1, §2

As to `Cc1nnc(SCC2=C(C(=O)O)N3C(=O)C(NC(=O)[C@H](NC(=O)NC(=N)N)c4ccccc4)C3SC2)s1` (stereo partly drawn) [B, 7-[d-α-(3-guanyl-1-ureido)phenylacetamido]-3-(5-methyl-1,3,4-thiadiazol-2-yl-thiomethyl)-3-cephem-4-carboxylid acid], the MIC in the assay with Aerobacter aerogenes was found to be 1 µg/mL (≈ 1.78 µM); in the assay with Escherichia coli, 8.7 µg/mL (≈ 15.5 µM); in the assay with Klebsiella pneumoniae, 1 µg/mL (≈ 1.78 µM); with Pseudomonas aeruginosa, 104 µg/mL (≈ 185 µM); in the assay on Salmonella heidelberg, 6 µg/mL (≈ 10.7 µM); in the assay on Serratia marcescens, 14.3 µg/mL (≈ 25.4 µM). The MIC in the assay with Shigella sp. is 5.5 µg/mL (≈ 9.78 µM); in [1] (N.S. = in the absence of serum) it was 1 µg/mL (≈ 1.78 µM); in assay [1] (S = in the presence of serum) it was above 20 µg/mL; in assay [2] (N.S. = in the absence of serum) it was 1 µg/mL (≈ 1.78 µM); in assay [2] (S = in the presence of serum), above 20 µg/mL; in [3] (N.S. = in the absence of serum), 0.6 µg/mL (≈ 1.07 µM). The MIC is 10 µg/mL in assay [3] (S = in the presence of serum), 0.6 µg/mL (≈ 1.07 µM) in [4] (N.S. = in the absence of serum) and 10 µg/mL in assay [4] (S = in the presence of serum). Also, the “activity against gram-negative microorganisms compared with known compound E” value (shortened to “activity … compared with known compound E”) in assay [5] is “significantly greater activity against gram-negative microorganisms than the known compound, E”.

With `Cn1nnnc1SCC1=C(C(=O)O)N2C(=O)C(NC(=O)[C@H](NC(=O)NC(=N)N)c3ccc(O)cc3)C2SC1` (stereo partly drawn) [C, 7-[d-α-(3-guanyl-1-ureido)-4-hydroxyphenylacetamido]-3-(1-methyl-1H-tetrazol-5-yl-thiomethyl)-3-cephem-4-carboxylic acid], the MIC with Aerobacter aerogenes amounted to 0.1 µg/mL (≈ 0.178 µM); in the assay on Escherichia coli, 0.7 µg/mL (≈ 1.24 µM); with Klebsiella pneumoniae it was 1.2 µg/mL (≈ 2.13 µM); in the assay on Pseudomonas aeruginosa, 23 µg/mL (≈ 40.9 µM); in the assay on Salmonella heidelberg, 0.2 µg/mL (≈ 0.355 µM); in the assay with Serratia marcescens, 21 µg/mL (≈ 37.3 µM). Further, the MIC in the assay on Shigella sp. is 0.7 µg/mL (≈ 1.24 µM); in assay [1] (N.S. = in the absence of serum) it was 1 µg/mL (≈ 1.78 µM); in [1] (S = in the presence of serum), 10 µg/mL; in [2] (N.S. = in the absence of serum) it was below 0.1 µg/mL; in assay [2] (S = in the presence of serum) it was 10 µg/mL; in assay [3] (N.S. = in the absence of serum), below 0.1 µg/mL. In addition, the values for the MIC in assay [3] (S = in the presence of serum), in assay [4] (N.S. = in the absence of serum) and in assay [4] (S = in the presence of serum) were 1 µg/mL, below 0.1 µg/mL and 0.6 µg/mL, respectively. In addition, the “activity … compared with known compound E” value in assay [5] was “significantly greater activity against gram-negative microorganisms than the known compound, E”.

For `Cc1nnc(SCC2=C(C(=O)O)N3C(=O)C(NC(=O)[C@H](NC(=O)NC(=N)N)c4ccc(O)cc4)C3SC2)s1` (stereo partly drawn) [D, 7-[d-α-(3-guanyl-1-ureido)-4-hydroxyphenylacetamido]-3-(5-methyl-1,3,4-thiadiazol-2-yl-thiomethyl)-3-cephem-4-carboxylic acid], the MIC in the assay with Aerobacter aerogenes stood at 1 µg/mL (≈ 1.73 µM); with Escherichia coli it was 6 µg/mL (≈ 10.4 µM); in the assay on Klebsiella pneumoniae it was 1 µg/mL (≈ 1.73 µM); with Pseudomonas aeruginosa, 50 µg/mL (≈ 86.4 µM); in the assay on Salmonella heidelberg, 1 µg/mL (≈ 1.73 µM); in the assay with Serratia marcescens, 50 µg/mL (≈ 86.4 µM). Moreover, the MIC came to 4.5 µg/mL (≈ 7.78 µM) with Shigella sp.; 1 µg/mL (≈ 1.73 µM) in [1] (N.S. = in the absence of serum); 12 µg/mL in [1] (S = in the presence of serum); 1 µg/mL (≈ 1.73 µM) in [2] (N.S. = in the absence of serum); 6 µg/mL in assay [2] (S = in the presence of serum); 1 µg/mL (≈ 1.73 µM) in [3] (N.S. = in the absence of serum). Besides, the MIC turned out to be 2 µg/mL in assay [3] (S = in the presence of serum), 1 µg/mL (≈ 1.73 µM) in assay [4] (N.S. = in the absence of serum) and 1 µg/mL in assay [4] (S = in the presence of serum). In [5], the “activity … compared with known compound E” value was “significantly greater activity against gram-negative microorganisms than the known compound, E”.

With `Cn1nnnc1SCC1=C(C(=O)O)N2C(=O)C(NC(=O)[C@H](NC(=O)NC(=N)N)c3ccccc3)C2SC1` (stereo partly drawn) [A, 7-[D-α-(3-Guanyl-1-ureido)phenylacetamido]-3-(1-methyl-1H-tetrazol-5yl-thiomethyl)-3-cephem-4-carboxylic acid], the MIC with Aerobacter aerogenes came to 0.7 µg/mL (≈ 1.28 µM); with Escherichia coli, 2 µg/mL (≈ 3.66 µM); with Klebsiella pneumoniae, 1 µg/mL (≈ 1.83 µM); in the assay with Pseudomonas aeruginosa, 53.5 µg/mL (≈ 97.9 µM); with Salmonella heidelberg it was 0.8 µg/mL (≈ 1.46 µM); with Serratia marcescens, 7 µg/mL (≈ 12.8 µM). Further, the MIC in the assay on Shigella sp. stood at 2 µg/mL (≈ 3.66 µM); in [1] (N.S. = in the absence of serum) it was 1 µg/mL (≈ 1.83 µM); in [1] (S = in the presence of serum), 9 µg/mL; in [2] (N.S. = in the absence of serum), 0.7 µg/mL (≈ 1.28 µM); in assay [2] (S = in the presence of serum), 1 µg/mL; in assay [3] (N.S. = in the absence of serum), 0.6 µg/mL (≈ 1.1 µM). Moreover, the MIC was 1 µg/mL in assay [3] (S = in the presence of serum), 0.5 µg/mL (≈ 0.915 µM) in [4] (N.S. = in the absence of serum) and below 0.1 µg/mL in assay [4] (S = in the presence of serum). The “activity … compared with known compound E” value in assay [5] is “significantly greater activity against gram-negative microorganisms than the known compound, E”.

Take `CC(=O)OCC1=C(C(=O)O)N2C(=O)C(NC(=O)[C@H](NC(=O)NC(=N)N)c3ccccc3)C2SC1` (stereo partly drawn) [E, 7-[d-α-(3-guanyl-1-ureido)phenylacetamido]-3-acetoxymethyl-3-cephem-4-carboxylic acid, reference compound]: the MIC with Aerobacter aerogenes was determined as 4.5 µg/mL (≈ 9.17 µM); in the assay on Escherichia coli, 13.8 µg/mL (≈ 28.1 µM); with Klebsiella pneumoniae it was 21.5 µg/mL (≈ 43.8 µM); in the assay on Pseudomonas aeruginosa, 100 µg/mL (≈ 204 µM); in the assay on Salmonella heidelberg, 6 µg/mL (≈ 12.2 µM); with Serratia marcescens, 31.5 µg/mL (≈ 64.2 µM). The MIC with Shigella sp. was found to be 16.3 µg/mL (≈ 33.2 µM); in [1] (N.S. = in the absence of serum), 0.7 µg/mL (≈ 1.43 µM); in [1] (S = in the presence of serum), 1 µg/mL; in assay [2] (N.S. = in the absence of serum) it was 0.5 µg/mL (≈ 1.02 µM); in [2] (S = in the presence of serum), 1 µg/mL; in assay [3] (N.S. = in the absence of serum) it was 0.6 µg/mL (≈ 1.22 µM). The MIC worked out at 1 µg/mL in [3] (S = in the presence of serum), 0.6 µg/mL (≈ 1.22 µM) in [4] (N.S. = in the absence of serum) and 1 µg/mL in assay [4] (S = in the presence of serum).
